Patent publication US12084472B2 (Ardelyx, Inc., priority 2015, dated 2024)

target: T1, human TGR5 (Homo sapiens, UniProt Q8TDU6); assay: Cell-based TGR5 assay (cAMP generation, HTRF); settings: HEK293 cells stably transfected with human TGR5; cAMP by HTRF; 30 minutes at 37° C.; read-out: pEC50 Human TGR5 (converted)
T1 construct: expressed in transfected cells; host or cells: HEK293
T1 sequence (Q8TDU6 1-330): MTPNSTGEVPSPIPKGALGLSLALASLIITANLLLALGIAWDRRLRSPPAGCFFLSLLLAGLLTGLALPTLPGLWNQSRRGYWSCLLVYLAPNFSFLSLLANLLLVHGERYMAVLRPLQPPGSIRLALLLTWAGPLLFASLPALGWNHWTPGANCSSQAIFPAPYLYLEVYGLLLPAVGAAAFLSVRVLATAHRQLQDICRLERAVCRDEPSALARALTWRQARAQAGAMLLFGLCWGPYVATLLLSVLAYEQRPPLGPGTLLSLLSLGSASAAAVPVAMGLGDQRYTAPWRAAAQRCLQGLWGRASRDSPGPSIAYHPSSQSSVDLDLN
Method in brief: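 Read-out was HTRF detection of cAMP, converted to concentration via a standard curve and fitted (3-parameter logistic) for pEC50 and maximal response. Agonist stimulation used HEK293 cells stably transfected with human TGR5, incubated 30 min at 37° C in IBMX-containing buffer at 0.05 nM to 10 μM compound.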

Row | EC50 [nM] | Compound
1 | < 100 | Cc1ccc([C@H](C)CCCC(=O)N(CCS(C)(=O)=O)C[C@H](O)[C@@H](O)[C@H](O)[C@H](O)CO)cc1CNC1(c2cnccc2-c2ccccc2OC2CC2)CC1 (single isomer, unassigned) [Compound I-368]
2 | < 100 | CN(CCCCCNC(=O)N[C@@H](CO)[C@@H](O)[C@H](O)[C@H](O)CO)S(=O)(=O)c1ccc(Cl)c(COC2(c3cnccc3-c3ccccc3OC3CC3)CC2)c1 (stereo in doubt) [Compound I-405, 1-{5-[N-methyl4-chloro-3-({1-[4-(2-cyclopropoxyphenyl)pyridin-3-yl]cyclopropoxy}methyl)benzenesulfonamido]pentyl}-3-[(2S,3R,4S,5R)-1,3,4,5,6-pentahydroxyhexan-2-yl]urea]
3 | 126 to 1000 | O=C1CCCN1CCCN(CCCCSc1ccc(Cl)c(CNC2(c3cnccc3-c3ccccc3OC3CC3)CC2)c1)C(=O)[C@@H](O)[C@@H](O)[C@H](O)[C@@H](O)CO [Compound I-554, (2S,3S,4R,5S)-N-[4-({4-chloro-3-[({1-[4-(2-cyclopropoxyphenyl)pyridin-3-yl]cyclopropyl}amino)methyl]phenyl}sulfanyl)butyl]-2,3,4,5,6-pentahydroxy-N-[3-(2-oxopyrrolidin-1-yl)propyl]hexanamide]
4 | < 100 | CC(CCCNC(=O)[C@@H](O)[C@@H](O)[C@H](O)[C@@H](O)CO)c1ccc(Cl)c(CNC2(c3cnccc3-c3ccccc3OC3CC3)CC2)c1 (stereo partly drawn) [Compound I-278, (2S,3S,4R,5S)-N-(4-{4-chloro-3-[({1-[4-(2-cyclopropoxyphenyl)pyridin-3-yl]cyclopropyl}amino)methyl]phenyl}pentyl)-2,3,4,5,6-pentahydroxyhexanamide]
5 | 1260 to 10000 | O[C@@H]1COC[C@H]1Oc1ccccc1-c1ccncc1C1(NCc2cc(Cl)ccc2Cl)CC1 [Compound I-22, (3R,4R)-4-{2-[3-(1-{[(2,5-dichlorophenyl)methyl]amino}cyclopropyl)pyridin-4-yl]phenoxy}oxolan-3-ol]
6 | 126 to 1000 | CCNC(=O)CCN(C[C@H](O)[C@@H](O)[C@H](O)[C@H](O)CO)C(=O)CCCC(C)c1ccc(Cl)c(CNC2(c3cnccc3-c3ccccc3OC3CC3)CC2)c1 (stereo partly drawn) [Compound I-344, 5-{4-chloro-3-[({1-[4-(2-cyclopropoxyphenyl)pyridin-3-yl]cyclopropyl}amino)methyl]phenyl}-N-[2-(ethylcarbamoyl)ethyl]-N-[(2S,3R,4R,5R)-2,3,4,5,6-pentahydroxyhexyl]hexanamide]
7 | < 100 | CS(=O)(=O)CCN(CCCCSc1ccc(Cl)c(COC2(c3cnccc3-c3ccccc3OC3CC3)CC2)c1)C(=O)[C@@H](O)[C@@H](O)[C@H](O)[C@@H](O)CO [Compound I-559, (2S,3S,4R,5S)-N-(4-{[4-chloro-3-({1-[4-(2-cyclopropoxyphenyl)pyridin-3-yl]cyclopropoxy}methyl)phenyl]sulfanyl}butyl)-2,3,4,5,6-pentahydroxy-N-(2-methanesulfonylethyl)hexanamide]
8 | < 100 | Cc1cc(COC2(c3cnccc3-c3ccccc3OC3CC3)CC2)c(C)cc1CCCCC(=O)NC[C@H](O)[C@@H](O)[C@H](O)[C@H](O)CO [Compound I-229, 5-[4-({1-[4-(2-cyclopropoxyphenyl)pyridin-3-yl]cyclopropoxy}methyl)-2,5-dimethylphenyl]-N-[(2S,3R,4R,5R)-2,3,4,5,6-pentahydroxyhexyl]pentanamide]
9 | < 100 | O=C(NC[C@H](O)[C@@H](O)[C@H](O)[C@H](O)CO)NC1CCC(CCNS(=O)(=O)c2ccc(Cl)c(COC3(c4cnccc4-c4ccccc4OC4CC4)CC3)c2)CC1 (stereo partly drawn) [Compound I-422, 1-(4-{2-[4-chloro-3-({1-[4-(2-cyclopropoxyphenyl)pyridin-3-yl]cyclopropoxy}methyl)benzenesulfonamido]ethyl}cyclohexyl)-3-[(2S,3R,4R,5R)-2,3,4,5,6-pentahydroxyhexyl]urea]
10 | 126 to 1000 | CCOC(=O)NCCCN(CCCSc1ccc(Cl)c(COC2(c3cnccc3-c3ccccc3OC3CC3)CC2)c1)C(=O)[C@@H](O)[C@@H](O)[C@H](O)[C@@H](O)CO [Compound I-596, ethyl N-{3-[(2S,3S,4R,5S)-N-(3-{[4-chloro-3-({1-[4-(2-cyclopropoxyphenyl)pyridin-3-yl]cyclopropoxy}methyl)phenyl]sulfanyl}propyl)-2,3,4,5,6-pentahydroxyhexanamido]propyl}carbamate]
11 | 126 to 1000 | COc1c(F)cc(CNC2(c3cnccc3-c3ccccc3OC3CC3)CC2)c(C)c1Cl [Compound I-36, N-[(3-chloro-5-fluoro-4-methoxy-2-methylphenyl)methyl]-1-[4-(2-cyclopropoxyphenyl)pyridin-3-yl]cyclopropan-1-amine]
12 | < 100 | Cc1cc(COC2(c3cnccc3-c3ccccc3OC3CC3)CC2)c(Cl)cc1CCCCNC(=O)NC[C@@H]1O[C@H](C(=O)O)[C@@H](O)[C@H](O)[C@H]1O [Compound I-110, (2S,3S,4R,5R,6S)-6-{[({4-[5-chloro-4-({1-[4-(2-cyclopropoxyphenyl)pyridin-3-yl]cyclopropoxy}methyl)-2-methylphenyl]butyl}carbamoyl)amino]methyl}-3,4,5-trihydroxyoxane-2-carboxylic acid]
13 | 126 to 1000 | Cc1ccc(C(C)CCCC(=O)N(CCCO)C[C@H](O)[C@@H](O)[C@H](O)[C@H](O)CO)cc1CNC1(c2cnccc2-c2ccccc2OC2CC2)CC1 (stereo partly drawn) [Compound I-358, 5-{3-[({1-[4-(2-cyclopropoxyphenyl)pyridin-3-yl]cyclopropyl}amino)methyl]-4-methylphenyl}-N-(3-hydroxypropyl)-N-[(2S,3R,4R,5R)-2,3,4,5,6-pentahydroxyhexyl]hexanamide]
14 | 126 to 1000 | CN(CCCCc1cc(Cl)c(COC2(c3cnccc3-c3ccccc3OC3CC3)CC2)cc1Cl)C(=O)CN(CCN(CC(=O)O)CC(=O)N(C)CCCCc1cc(Cl)c(COC2(c3cnccc3-c3ccccc3OC3CC3)CC2)cc1Cl)CC(=O)O [Compound I-188, 2-({2-[(carboxymethyl)[({4-[2,5-dichloro-4-({1-[4-(2-cyclopropoxyphenyl)pyridin-3-yl]cyclopropoxy}methyl)phenyl]butyl}(methyl)carbamoyl)methyl]amino]ethyl}[({4-[2,5-dichloro-4-({1-[4-(2-cyclopropoxyphenyl)pyridin-3-yl]cyclopropoxy}methyl)phenyl]butyl}(methyl)carbamoyl)methyl]amino)acetic acid]
15 | 126 to 1000 | CN(C)C(=O)CN(C[C@H](O)[C@@H](O)[C@H](O)[C@H](O)CO)C(=O)CCCSc1ccc(Cl)c(COC2(c3cnccc3-c3ccccc3OC3CC3)CC2)c1 [Compound I-674, 4-{[4-chloro-3-({1-[4-(2-cyclopropoxyphenyl)pyridin-3-yl]cyclopropoxy}methyl)phenyl]sulfanyl}-N-[(dimethylcarbamoyl)methyl]-N-[(2S,3R,4R,5R)-2,3,4,5,6-pentahydroxyhexyl]butanamide]
16 | < 100 | Cc1ccc(S(=O)(=O)N(C)CCCCNC(=O)NC[C@H](O)[C@@H](O)[C@H](O)[C@H](O)CO)cc1CNC1(c2cnccc2-c2ccccc2OC2CC2)CC1 [Compound I-477, 1-(4-{N-methyl3-[({1-[4-(2-cyclopropoxyphenyl)pyridin-3-yl]cyclopropyl}amino)methyl]-4-methylbenzenesulfonamido}butyl)-3-[(2S,3R,4R,5R)-2,3,4,5,6-pentahydroxyhexyl]urea]
17 | < 100 | O=C(NC[C@H](O)[C@@H](O)[C@H](O)[C@H](O)CO)C1CCC(NS(=O)(=O)c2ccc(Cl)c(COC3(c4cnccc4-c4ccccc4OC4CC4)CC3)c2)C1 (stereo partly drawn) [Compound I-439, 3-[4-chloro-3-({1-[4-(2-cyclopropoxyphenyl)pyridin-3-yl]cyclopropoxy}methyl)benzenesulfonamido]-N-[(2S,3R,4R,5R)-2,3,4,5,6-pentahydroxyhexyl]cyclopentane-1-carboxamide]
18 | < 100 | O=C(CCC1CN(S(=O)(=O)c2ccc(Cl)c(COC3(c4cnccc4-c4ccccc4OC4CC4)CC3)c2)C1)NC[C@H](O)[C@@H](O)[C@H](O)[C@H](O)CO [Compound I-448, 3-{1-[4-chloro-3-({1-[4-(2-cyclopropoxyphenyl)pyridin-3-yl]cyclopropoxy}methyl)benzenesulfonyl]azetidin-3-yl}-N-[(2S,3R,4R,5R)-2,3,4,5,6-pentahydroxyhexyl]propanamide]
19 | < 100 | CN(C[C@H](O)[C@@H](O)[C@H](O)[C@H](O)CO)C(=O)CCCSc1ccc(Cl)c(CNC2(c3cnccc3-c3ccccc3OC3CC3)CC2)c1 [Compound I-650, 4-({4-chloro-3-[({1-[4-(2-cyclopropoxyphenyl)pyridin-3-yl]cyclopropyl}amino)methyl]phenyl}sulfanyl)-N-methyl-N-[(2S,3R,4R,5R)-2,3,4,5,6-pentahydroxyhexyl]butanamide]
20 | 126 to 1000 | CC(=O)N1C[C@@H]2C[C@H]1CN2S(=O)(=O)c1ccc(Cl)c(COC2(c3cnccc3-c3ccccc3OC3CC3)CC2)c1 [Compound I-780, 1-((1S,4S)-5-((4-chloro-3-((1-(4-(2-cyclopropoxyphenyl)pyridin-3-yl)cyclopropoxy)methyl)phenyl)sulfonyl)-2,5-diazabicyclo[2.2.1]heptan-2-yl)ethan-1-one]
21 | < 100 | CC(=O)NCCCCN(C)S(=O)(=O)c1ccc(Cl)c(COC2(c3cnccc3-c3ccccc3OC3CC3)CC2)c1 [Compound I-766, N-(4-((4-chloro-3-((1-(4-(2-cyclopropoxyphenyl)pyridin-3-yl)cyclopropoxy)methyl)-N-methylphenyl)sulfonamido)butyl)acetamide]
